Measurements from patent US11807627B2, “Morphic forms of complement factor D inhibitors” (priority 2018, dated 2023).
In brackets after ≈: the same amount, converted by molar mass.

Columns and labels:
[1] = Hydration study in 2-propanol/water systems; assay type: physicochemical
Procedure: A hydration study of Compound 3 Form A was conducted using 4 different aw 2-propanol/water solvent systems. Approximately 20 mg of Compound 3 Form A was weighed into four 2 mL glass vials. An appropriate volume of solvent system was added to the solids and samples were agitated for about 48 hours under ambient conditions. After 48 hours, solids were isolated using centrifuge filtration and analyzed by XRPD. […] (FIG. 32)

[2] = Thermogravimetric/differential thermal analysis (TG/DTA); assay type: physicochemical
Procedure: Approximately, 5 mg of material was weighed into an open aluminium pan and loaded into a simultaneous thermogravimetric/differential thermal analyzer (TG/DTA) and held at room temperature. The sample was then heated at a rate of 10° C./min from 20° C. to 400° C. during which time the change in sample weight occurred was recorded along with any differential thermal events (DTA). Nitrogen was used as the purge gas at a flow rate of 300 cm^3/min.

[3] = Differential scanning calorimetry (DSC); assay type: physicochemical; conditions: for DSC: Melting: onset; for DSC: Melting / DSC: Melting (peak): Table 27A
Procedure: DSC was performed using a TA Instruments 2920 or Q2000 differential scanning calorimeter. Temperature calibration was performed using NIST-traceable indium metal. The sample was placed into an aluminum DSC pan, covered with a lid, and the weight was accurately recorded. A weighed aluminum pan configured as the sample pan was placed on the reference side of the cell. The method code on the thermogram is an abbreviation for the start and end temperature as well as the heating rate; e.g., -30-250-10 means “from −30° C. to 250° C., at 10° C./min”. The following table summarizes the abbreviations used in each image for pan configurations: […]

[4] = Compression of Form A (2.5 KN, 5.0 KN); assay type: physicochemical; conditions: initial and repeat
Procedure: Compound 3 Form A material was compressed using a specac press. Approximately 125 mg of Compound 3 Form A was weighed into a 20 mL glass vial. The material was then transferred into an IR die and pressed to 2.5 KN for approx. 5 seconds. The resulting material was (ground lightly to break the disk that was returned and) analyzed by XRPD and PLM. The material was then placed back into the die and pressed to 5.0 KN (for approx. 5 seconds). The resulting material was ground lightly to break the disk that was returned and analyzed by XRPD and PLM. The procedure detail was repeated, using separate batches of solid for 2.5 KN and 5.0 KN experiments. XRPD analysis and PLM analysis was completed on the material returned after pressing. All samples returned Form A material by XRPD and consisted of small birefringent particles with no clear morphology by PLM (FIG. 35A-FIG. 35C).

[5] = Solution stress testing (acid, base, oxidative degradation); assay type: physicochemical
[6] = test system: Caco2; test: Caco2 permeability and efflux ratio; assay type: in vitro ADME; conditions: A-B
[7] = Caco2 permeability and efflux ratio; assay type: in vitro ADME; conditions: human, Caco-2; Caco2; read-out: Efflux ratio (B-A/A-B)
[8] = Solid state stress testing (temperature, humidity, storage, photostability); assay type: physicochemical
[9] = Process for the formation of Form J: XRPD result after each step (Table 22); assay type: physicochemical
Procedure: A polymorph study was completed for Form J. The production of Form J was completed by temperature cycling amorphous Compound 3 in acetronitrile (Form B) with drying the material under ambient conditions for about 24 hours.

[10] = Enabling form study: solubility from RT slurry in solvents (Table 2); assay type: physicochemical; conditions: organic solvent or mixture, thermodynamic from solid
Procedure: A solution of Compound 3 and solvent/solvent system of interest was prepared. Solids persisted in solution. The samples were placed onto a stir plate at ambient (RT) or elevated (ET) temperatures. The samples were monitored to ensure that solids persisted during the slurry process. The solids were collected via vacuum filtration and dried under ambient conditions.
An enabling form study was also carried out (Table 2).

[11] = Grinding study; assay type: physicochemical; conditions: pestle and mortar
Procedure: 10 mg of the appropriate Compound 3 material (detailed in Table 28) was weighed into separate HPLC vials. The solids were then ground using a pestle and mortar. Resulting materials were analyzed by XRPD (FIG. 47). From samples where mixtures of forms were used, mixtures of forms were recovered. Where all 3 forms were used, Form A was not returned, although it is possible that the already small particle size of Form A was reduced further by grinding and therefore not detected by XRPD analysis.

CC(=O)c1nn(CC(=O)N2[C@H](C(=O)Nc3nc(Br)ccc3C)C[C@@]3(C)C[C@@H]23)c2ccc(-c3cnc(C)nc3)cc12 [Compound 3 Form A]
Hydration study: XRPD results ([1]; Water activity (aw) 0.354, 2-propanol/water, about 48 hours, ambient): Form A | Hydration study: XRPD results ([1]; Water activity (aw) 0.526): Form A | Hydration study: XRPD results ([1]; Water activity (aw) 0.704): Predominantly amorphous | Hydration study: XRPD results ([1]; Water activity (aw) 0.910): Predominantly amorphous | Onset Temp: Melting ([2]; Table 22B): 139.4, melting ° C. | Onset Temp: decomposition ([2]; Table 22B): 209.0 °C | Onset Temp: melting (second event) ([2]; Table 22B): 153.9, ° C. | TG/DTA: Melting ([2]; Table 27A): Melting 139.4 °C | TG/DTA: decomposition ([2]; Table 27A): decomposition 209 °C | TG/DTA: melting (second event) ([2]; Table 27A): melting 153.9° C., | Mass loss within the TG trace ([2]; up to 250° C.): 0.8% | Thermal events from SSCI report: Melt ([3]; SSCI report): Melt 133-150 °C | DSC: Melting [3]: Melting 138 °C (peak | DSC: Melting (peak) [3]: 151.4° C.) | Compression: XRPD ([4]; 2.5 KN): Form A | Compression: XRPD ([4]; 5.0 KN): Form A

CC(=O)c1nn(CC(=O)N2[C@H](C(=O)Nc3nc(Br)ccc3C)C[C@@]3(C)C[C@@H]23)c2ccc(-c3cnc(C)nc3)cc12 [Compound 3, (1R,3S,5R)-2-(2-(3-acetyl-5-(2-methylpyrimidin-5-yl)-1H-indazol-1-yl)acetyl)-N-(6-bromo-3-methylpyridin-2-yl)-5-methyl-2-azabicyclo[3.1.0]hexane-3-carboxamide]
Solution stress testing: Acid degradation ([5]; 0.1N HCl): Degradation observed | Solution stress testing: Base degradation ([5]; 0.1N NaOH): Degradation observed | Solution stress testing: Oxidative degradation ([5]; H2O2): Not susceptible to oxidation | Caco2: A-B [6]: Caco2: A-B ~17 × 10^−6 cm/s | efflux ratio [7]: 2.2 | Solid State Stress Testing: Room Temperature storage [8]: No degradation | Solid State Stress Testing: Humidity ([8]; 40° C./75% RH): No degradation | Solid State Stress Testing: Elevated temperature ([8]; 105° C. - 24 hr): No degradation | Solid State Stress Testing: Photostability ([8]; exposure to UV visible): No light senstitivity | XRPD result ([9]; Step 1: Lyophilization): Amorphous | XRPD result ([9]; Step 5: Re-slurry in 5 mL acetonitrile): Form J | XRPD result ([9]; Step 8: Re-slurry in 1.5 mL acetonitrile 18 hours): Form J | XRPD result ([9]; Step 11: Re-slurry 4 ml acetonitrile 18 hours): Form J | XRPD result ([9]; Step 12: Air drying 2, 5 and 24 hours): Form J | XRPD result ([9]; Step 13: After 5 days storage under ambient conditions): Amorphous | XRPD result ([9]; Step 14: Re-slurry 4 ml acetonitrile 18 hours): Form J | XRPD result ([9]; Step 15: Isolation using Buchner funnel (10-15 seconds on filter bed)): Amorphous | XRPD result ([9]; Step 16: Re-slurry 4 ml acetonitrile 4 hours): Form J | XRPD result ([9]; Step 17: Isolation using centrifuge filtration): Form J | XRPD result ([9]; Step 18: Ambient drying 18 hours): Form J | solubility ([10]; ethyl acetate, EtOAc): ~14500 µg/mL (≈ 24.1 mM) | solubility ([10]; isopropanol, IPA): ~5600 µg/mL (≈ 9.29 mM) | solubility ([10]; MTBE): ~1200 µg/mL (≈ 1.99 mM) | solubility ([10]; Toluene): ~13600 µg/mL (≈ 22.6 mM)

CC(=O)c1nn(CC(=O)N2[C@H](C(=O)Nc3nc(Br)ccc3C)C[C@@]3(C)C[C@@H]23)c2ccc(-c3cnc(C)nc3)cc12 [Form B]
Form change upon grinding (XRPD) [11]: did not change form | Onset Temp: Melting ([2]; Table 22B): Melting 179.8 °C | TG/DTA: Melting ([2]; Table 27A): Melting 178.4 °C | Thermal events from SSCI report: thermal event temperature ([3]; SSCI report, event not named): ~176 °C | DSC: Melting [3]: Melting 178.4 °C | DSC: Melting (peak) [3]: (peak 186.3° C.)
